The record followed here is US9029337B2, “Modulation of factor 7 expression” (Isis Pharmaceuticals, Inc., priority 2007, dated 2015).

Strand notation (5' to 3'): a small letter for the sugar, then the base; units joined by * are phosphorothioate-linked, units joined directly phosphodiester-linked; [ ] holds rarer units or linkages, { } end groups; capitals alone tell only the bases. e = 2'-O-(2-methoxyethyl) (MOE); [5mC] = 5-methylcytosine; d = 2'-deoxy (DNA)

The term % Inhibition denotes the relative decrease from the control value, in per cent.

This series concerns human Factor 7 mRNA. Put plainly: Antisense inhibition of human Factor 7 mRNA in HepB3 cells, 50 nM antisense oligonucleotide, lipofectin. To be noted: Table 1, 50 nM, lipofectin, approximately 24 hours, relative to untreated control cells. The class given is cell-based. The procedure:
Antisense oligonucleotides targeted to a Factor 7 nucleic acid were tested for their effects on Factor 7 mRNA in vitro. Cultured HepB3 cells at a density of 4,000 cells per well were transfected using lipofectin reagent with 50 nM antisense oligonucleotide. After a treatment period of approximately 24 hours, RNA was isolated from the cells and Factor 7 mRNA levels were measured by real-time RT-PCR, as described herein. Factor 7 mRNA levels were adjusted according to total RNA content as measured by RIBOGREEN®. Results are presented as percent inhibition of Factor 7, relative to untreated control cells.
(§1) Antisense oligonucleotides targeted to a Factor 7 nucleic acid were designed and tested for their effects on Factor 7 mRNA in vitro. Certain antisense oligonucleotides from Table 3 were also retested for their effects on Factor 7 mRNA in vitro. Cultured HepB3 cells at a density of 4,000 cells per well were transfected using lipofectin reagent with 50 nM antisense oligonucleotide. After a treatment period of approximately 24 hours, RNA was isolated from the cells and Factor 7 mRNA levels were measured by real-time RT-PCR, as described herein. Human Factor 7 primer probe set RTS 2927 was used to measure mRNA levels. Factor 7 mRNA levels were adjusted according to total RNA content as measured by RIBOGREEN®. Results are presented as percent inhibition of Factor 7, relative to untreated control.
as §1, with “tested” for “tested for their effects on Factor 7 mRNA in vitro. Certain antisense oligonucleotides from Table 3 were also retested”
These gapmers were designed by creating gapmers shifted slightly upstream and downstream (i.e. “microwalk”) of the original gapmers from Table 7. Gapmers were also created with various motifs, e.g. 5-10-5 MOE, 3-14-3 MOE, and 2-13-5 MOE. These gapmers were tested in vitro. Cultured HepB3 cells at a density of 4,000 cells per well were transfected using lipofectin reagent with 50 nM antisense oligonucleotide. After a treatment period of approximately 24 hours, RNA was isolated from the cells and Factor 7 mRNA levels were measured by real-time RT-PCR. Factor 7 mRNA levels were adjusted according to total RNA content, as measured by RIBOGREEN®. Results are presented as percent inhibition of Factor 7, relative to untreated control cells.
Regarding “403090 (antisense eA*eG*eT*e[5mC]*e[5mC]*dT*dG*dG*dG*dT*d[5mC]*dA*dT*d[5mC]*dA*eG*e[5mC]*e[5mC]*eG*eG) [compound 403090]”, the “% Inhibition” value came to 69%. Regarding “403093 (antisense eG*eA*eG*eA*e[5mC]*d[5mC]*d[5mC]*dT*dG*dG*dT*dG*dT*dA*d[5mC]*eA*e[5mC]*e[5mC]*e[5mC]*e[5mC]) [compound 403093]”, the “% Inhibition” value was determined as 75%. In the case of “407595 (antisense eT*e[5mC]*e[5mC]*eT*eG*dA*dG*dG*d[5mC]*d[5mC]*dT*dT*dA*dG*d[5mC]*eG*eA*e[5mC]*e[5mC]*e[5mC]) [compound 407595]” it was 71%; in that of “407596 (antisense eG*eA*eG*eG*e[5mC]*d[5mC]*d[5mC]*d[5mC]*dG*dG*d[5mC]*dT*dT*d[5mC]*d[5mC]*eA*e[5mC]*eG*eG*e[5mC]) [compound 407596]”, 61%; in that of “407597 (antisense eT*eG*eT*eT*eG*dA*d[5mC]*dA*dT*dT*d[5mC]*d[5mC]*d[5mC]*d[5mC]*dA*eT*eG*eG*eG*eA) [compound 407597]”, 39%. Under “407598 (antisense e[5mC]*e[5mC]*eA*eT*eG*dA*dT*dG*dA*dA*dA*dT*d[5mC]*dT*d[5mC]*eT*eG*e[5mC]*eA*eG) [compound 407598]” stands 72%; under “407599 (antisense e[5mC]*e[5mC]*eT*eG*eG*dG*dA*dG*dA*d[5mC]*d[5mC]*dA*dT*dG*dA*eT*eG*eA*eA*eA) [compound 407599]”, 73%; under “407600 (antisense eT*eG*eA*eA*eG*d[5mC]*d[5mC]*d[5mC]*dA*dA*dG*d[5mC]*dA*dG*dA*eA*eG*eG*e[5mC]*eA) [compound 407600]”, 61%.

Regarding “407601 (antisense e[5mC]*eA*eG*e[5mC]*e[5mC]*d[5mC]*dT*dG*dA*dA*dG*d[5mC]*d[5mC]*d[5mC]*dA*eA*eG*e[5mC]*eA*eG) [compound 407601]”, the “% Inhibition” value is 52%.

As for “407602 (antisense e[5mC]*eT*eG*e[5mC]*eA*dG*d[5mC]*d[5mC]*dA*dG*dG*d[5mC]*dA*dG*d[5mC]*e[5mC]*e[5mC]*eT*eG*eA) [compound 407602]”, the “% Inhibition” value is reported as 81%. Take “407603 (antisense eT*eA*eA*eG*eA*dA*dA*dT*d[5mC]*d[5mC]*dA*dG*dA*dA*d[5mC]*eA*eG*e[5mC]*eT*eT) [compound 407603]”: the “% Inhibition” value came out at 54%. Turning to “407604 (antisense e[5mC]*eA*e[5mC]*eA*e[5mC]*dT*dG*dG*dT*d[5mC]*d[5mC]*d[5mC]*d[5mC]*dA*dT*e[5mC]*eA*e[5mC]*eT*eG) [compound 407604]”, the “% Inhibition” value was 34%.

As to “407605 (antisense eT*eT*eG*eA*eG*dG*d[5mC]*dA*d[5mC]*dA*d[5mC]*dT*dG*dG*dT*e[5mC]*e[5mC]*e[5mC]*e[5mC]*eA) [compound 407605]”, the “% Inhibition” value came out at 58%. In the case of “407607 (antisense eT*eG*eG*eA*eG*d[5mC]*dT*dG*dG*dT*d[5mC]*d[5mC]*dT*dT*dG*e[5mC]*eA*eG*eG*eA) [compound 407607]” it was 76%; in that of “407608 (antisense eT*eA*eT*eA*eG*dG*dA*d[5mC]*dT*dG*dG*dA*dG*d[5mC]*dT*eG*eG*eT*e[5mC]*e[5mC]) [compound 407608]”, 13%.

In the case of “407609 (antisense eA*eG*eA*eA*eG*d[5mC]*dA*dG*dA*dT*dA*dT*dA*dG*dG*eA*e[5mC]*eT*eG*eG) [compound 407609]”, the “% Inhibition” value was determined as 35%. In the case of “407610 (antisense eA*eG*eG*eG*eA*dG*dG*d[5mC]*dA*dG*dA*dA*dG*d[5mC]*dA*eG*eA*eT*eA*eT) [compound 407610]” it was 31%; in that of “407611 (antisense eT*e[5mC]*eT*e[5mC]*eA*d[5mC]*dA*dG*dT*dT*d[5mC]*d[5mC]*dG*dG*d[5mC]*e[5mC]*e[5mC]*eT*e[5mC]*eG) [compound 407611]”, 82%; in that of “407612 (antisense eA*eG*eA*eT*e[5mC]*dA*dG*d[5mC]*dT*dG*dG*dT*d[5mC]*dA*dT*e[5mC]*e[5mC]*eT*eT*eG) [compound 407612]”, 82%. Under “407613 (antisense eT*eG*e[5mC]*eT*e[5mC]*dA*d[5mC]*dA*dG*d[5mC]*d[5mC]*dG*d[5mC]*d[5mC]*dG*eT*eT*e[5mC]*eT*e[5mC]) [compound 407613]” stands 66%; under “407614 (antisense eT*eG*e[5mC]*eA*eG*dT*dA*d[5mC]*dT*dG*d[5mC]*dT*d[5mC]*dA*d[5mC]*eA*eG*e[5mC]*e[5mC]*eG) [compound 407614]”, 78%.

In the case of “407615 (antisense eG*eA*e[5mC]*eA*e[5mC]*d[5mC]*d[5mC]*d[5mC]*dG*dT*d[5mC]*dT*dG*d[5mC]*d[5mC]*eA*eG*e[5mC]*eA*eG) [compound 407615]”, the “% Inhibition” value was determined as 65%. Turning to “407616 (antisense eT*eG*e[5mC]*eA*eG*dG*dA*d[5mC]*dA*d[5mC]*d[5mC]*d[5mC]*d[5mC]*dG*dT*e[5mC]*eT*eG*e[5mC]*e[5mC]) [compound 407616]”, the “% Inhibition” value is listed as 64%. Turning to “407617 (antisense eT*e[5mC]*e[5mC]*eA*e[5mC]*dA*dT*dG*dG*dA*dT*dA*dT*dT*d[5mC]*eA*eA*e[5mC]*eT*eG) [compound 407617]”, the “% Inhibition” value amounted to 67%. Turning to “407618 (antisense eG*eT*eA*eT*eT*dT*dT*dT*d[5mC]*d[5mC]*dA*d[5mC]*dA*dT*dG*eG*eA*eT*eA*eT) [compound 407618]”, the “% Inhibition” value was determined as 42%.

On to “407619 (antisense eA*eG*eA*eA*eT*dA*dG*dG*dT*dA*dT*dT*dT*dT*dT*e[5mC]*e[5mC]*eA*e[5mC]*eA) [compound 407619]”, for which the “% Inhibition” value is recorded as 64%.

For the substance “407620 (antisense eA*eG*eG*eA*e[5mC]*d[5mC]*dT*dG*d[5mC]*d[5mC]*dA*dT*dG*dG*dA*e[5mC]*eA*e[5mC]*eT*e[5mC]) [compound 407620]”, the “% Inhibition” value is 79%. Under “407621 (antisense eA*e[5mC]*eA*eA*e[5mC]*dA*dG*dG*dA*d[5mC]*d[5mC]*dT*dG*d[5mC]*d[5mC]*eA*eT*eG*eG*eA) [compound 407621]” stands 62%; under “407622 (antisense eT*e[5mC]*eA*e[5mC]*e[5mC]*dA*dA*d[5mC]*dA*dA*d[5mC]*dA*dG*dG*dA*e[5mC]*e[5mC]*eT*eG*e[5mC]) [compound 407622]”, 55%; under “407623 (antisense eT*e[5mC]*e[5mC]*eA*eT*dT*d[5mC]*dA*d[5mC]*d[5mC]*dA*dA*d[5mC]*dA*dA*e[5mC]*eA*eG*eG*eA) [compound 407623]”, 69%. Regarding “407624 (antisense eG*eA*eG*eA*e[5mC]*d[5mC]*dA*d[5mC]*d[5mC]*d[5mC]*dA*dG*dA*dT*dG*eG*eT*eG*eT*eT) [compound 407624]”, the “% Inhibition” value worked out at 73%.

As to “407625 (antisense eT*eT*eG*eT*e[5mC]*dG*dA*dA*dA*d[5mC]*dA*dG*dT*dG*dG*eG*e[5mC]*e[5mC]*eG*e[5mC]) [compound 407625]”, the “% Inhibition” value was 100%. In the case of “407626 (antisense eT*e[5mC]*eT*eT*eG*dA*dT*dT*dT*dT*dG*dT*d[5mC]*dG*dA*eA*eA*e[5mC]*eA*eG) [compound 407626]” it was 82%; in that of “407627 (antisense eG*e[5mC]*e[5mC]*e[5mC]*eA*dG*d[5mC]*dA*d[5mC]*d[5mC]*dG*d[5mC]*dG*dA*dT*e[5mC]*eA*eG*eG*eT) [compound 407627]”, 79%. Consider “407628 (antisense eT*eG*eA*eT*eG*dA*d[5mC]*d[5mC]*dT*dG*d[5mC]*dG*d[5mC]*d[5mC]*dA*e[5mC]*e[5mC]*e[5mC]*eG*e[5mC]) [compound 407628]”, for which the “% Inhibition” value came out at 38%. For “407629 (antisense eT*e[5mC]*eA*eG*eT*dG*dA*dG*dG*dA*d[5mC]*d[5mC]*dA*d[5mC]*dG*eG*eG*e[5mC]*eT*eG) [compound 407629]”, the “% Inhibition” value is on record as 34%. In the case of “407630 (antisense e[5mC]*eA*e[5mC]*eA*eT*dG*dG*dT*d[5mC]*dA*dG*dT*dG*dA*dG*eG*eA*e[5mC]*e[5mC]*eA) [compound 407630]”, the “% Inhibition” value stood at 29%.
